Test results reported in PMC9643456, “Matching amino acids membrane preference profile to improve activity of antimicrobial peptides” (Communications Biology, 2022).
Values after ≈ are worked out from the molar mass of the structure shown. Values joined by “and” are separate entries in the source; they are usually repeats but may differ in a detail not shown here. Identical values can stand only once. Square brackets hold non-standard residues; d marks the D form. Ends that are not written are not given here. Peptide text beside a SMILES is read from it.

Tests used:
human red blood cells = test: Hemolytic activity; assay type: cell-based
Outline: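 Peptides (100 μM down to 0.78 μM) were incubated with 4% final human erythrocytes in PBS for 18 h at 37 °C. Supernatant absorbance at 540 nm after centrifugation was scaled to 1% Triton X-100 (100%) and no peptide (0%); melittin served as positive control; triplicate runs.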

DMPC:DMPG liposomes = test: Isothermal titration calorimetry, peptide-liposome interaction; assay type: binding; conditions: ITC, PBS, 37 °C
Experimental: Liposomes were prepared using 1,2-dimyristoyl-sn-glycero-3-(phospho-rac-(1-glycerol)) (sodium salt) (DMPG) (Avanti, Alabama, USA); 1,2-dimyristoyl-sn-glycero-3-phosphocholine (DMPC) (Avanti); and cholesterol (Sigma, Darmstadt, Germany) were used. Bacterial membrane mimic DMPC/DMPG (7/3) unilamellar vesicles (LUVs), and mammalian membrane mimic DMPC/cholesterol (10/1) vesicles with 100-nm diameters were prepared using the freeze-thaw and extrusion method. Lipids were mixed and dissolved in methanol in round-bottomed flasks then evaporated and freeze-dried overnight, yielding a thin layer of lipid covering the glass wall. PBS was added to the lipid layer, after which the PBS-lipid layer was vortexed then frozen in liquid nitrogen and thawed in 50 °C water repeatedly until no visible layer remained. LiposoFast Liposome Factory Basic unit with stabilizer (Avestin, Ottawa, Canada) was then used to extrude the liposomes 50 times through a polycarbonate membrane filter (pore diameter, 100 nm; filter diameter, 0.75 inches) (Avestin). For circular dichroism, isothermal titration calorimetry, tryptophan fluorescence, and dynamic light scattering experiments, liposomes were reconstructed and resuspended in PBS (Welgene Inc, Gyeongsangbuk-do, Korea).
PC/PG liposome stock solutions and peptide solutions were diluted in PBS and degassed for 30 min. Peptide solutions (2 ml, 40 μM) were then loaded into a VP-ITC MicroCalorimeter (MicroCal, Northampton, USA). Liposome samples (600 μl, 2000 μM) were injected into the VP-ITC using a syringe. Measurement parameters were as follows: cell temperature, 37 °C; total injections, 30; reference power, 10; initial delay, 300; stirring speed, 300; edit mode, 10.0/12.0/200/2. Liposome solution (10 μl) was injected into the peptide solution 30 times. Each experiment was performed in duplicate. The results were calculated using MicroCal analysis.

MDR P. aeruginosa = test: microbe, parasite or virus in culture; conditions: for MIC in 0.2% albumin and 0.01% AcOH added CLSI standard condition, MDR P. aeruginosa: CAMHB plus 0.2% bovine serum albumin and 0.01% acetic acid, values marked * in Table 2; for Minimum inhibitory concentrations, MDR P. aeruginosa: CLSI broth microdilution, CAMHB with 50 mg/L Ca2+, 10 mg/L Mg2+, 5 × 10^5 CFU/ml, 18 h 37 °C, no visible turbidity, triplicate, strain CCARM 2180
Outline: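 MIC was read by eye as the lowest peptide concentration leaving no visible turbidity. Peptide and mid-log cells (final 5 × 10^5 CFU/ml) were combined in cation-adjusted Mueller–Hinton broth containing 50 mg/L calcium and 10 mg/L magnesium and incubated 18 h at 37 °C.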

A. baumannii strains = test: microbe, parasite or virus in culture; conditions: for Number of A. baumannii strains at MIC (μM) 0.63 / Number of A. baumannii strains at MIC (μM) 1.25 / Number of A. baumannii strains at MIC (μM) 2.5 / Number of A. baumannii strains at MIC (μM) 5 / Number of A. baumannii strains at MIC (μM) 10 / Number of A. baumannii strains at MIC (μM) ≤0.31 / Number of A. baumannii strains at MIC (μM) ≥20: of 30 strains
Experimental: Twenty-six A. baumannii strains were clinically isolated and gifted to us by the Kyungpook National University School of Medicine. One A. baumannii strain (ATCC 17978) was purchased and gifted to us by Kyungpook National University School of Medicine. One A. baumannii strain and 10 K. pneumoniae strains (NCCP) were purchased from the National Culture Collection for Pathogens.
To assess antimicrobial activity, the MIC50 and MIC90 were measured using broth microdilution following CLSI guidelines. […] Each experiment was performed in triplicate. Meropenem (Sigma, Darmstadt, Germany) and colistin were used as control antibiotics. Cation-adjusted Mueller–Hinton broth (CAMHB) (Becton, Dickinson and Company, Franklin Lakes, USA) with supplied calcium (50 mg/L) and magnesium (10 mg/L) was used for the CLSI-test condition. Bacteria in midlog phase and peptides were separately diluted in CAMHB. The bacteria and peptide solutions were then mixed in 96-well polyethylene plates (SPL, Gyeonggi-do, Korea) and incubated for 18 h at 37 °C. The final concentration for bacteria was 5 × 10^5 CFU/ml. […] The MIC was defined to be the lowest concentration of peptide without visible turbidity by comparing with control antibiotics with the unaided eye. […] Each experiment was performed in triplicate. MICs in albumin and acetic acid solutions were measured using the same protocol but with 0.2% bovine serum albumin (Bovogen, Keilor, Australia), 0.01% acetic acid (Merck, New Jersey, USA), and CAMHB with both calcium and magnesium. In addition, MICs used in the antibiotic resistance acquisition test, the outer–inner membrane permeation test, and the transmembrane potential test and for FE-SEM were individually determined. The final bacterial concentrations used were as follows: for resistance acquisition, optical density (OD) 0.01; for outer–inner membrane permeability assays (LB), OD 0.1; for the transmembrane potential test, 1 × 10^8 CFU/ml (OD 0.171); […]. Inhibitory activity unidentifiable by direct observation was determined by counting the CFUs. Each experiment was performed at least twice.

## WLVWIWRRR-NH2 [LWCopW29]
Human red blood cells; red cells of human, 18 h, 25
  Hemolysis percent, 25 μM: 0.84 ±0.06%
Human red blood cells; red cells of human, 18 h, 50
  Hemolysis percent, 50 μM: 5.15 ±0.15%
Human red blood cells; red cells of human, 18 h, 100
  Hemolysis percent, 100 μM: 13.65 ±0.74%
DMPC:DMPG liposomes; 1st run
  ΔS: 19.4 cal/moldeg
DMPC:DMPG liposomes; 2nd run
  ΔS: 19.4 cal/moldeg
MDR P. aeruginosa
  MIC in 0.2% albumin and 0.01% AcOH added CLSI standard condition, MDR P. aeruginosa: 20 µM
  Minimum inhibitory concentrations, MDR P. aeruginosa: > 20 µM

## CC[C@@H](C)[C@@H](NC(=O)[C@@H](Cc1c[nH]c2ccccc12)NC(=O)[C@@H](CCCNC(=N)N)NC(=O)[C@@H](CCCNC(=N)N)NC(=O)[C@H](N)CCCNC(=N)N)C(=O)N[C@H](Cc1c[nH]c2ccccc12)C(=O)N[C@@H](C(=O)N[C@@H](C(=O)N[C@H](Cc1c[nH]c2ccccc12)C(=O)N[C@H](CCCCN)C(N)=O)[C@H](C)CC)C(C)C [WCopW43] (H-[dR][dR][dR][dW][dI][dW][dV][dI][dW][dK]-NH2)
Human red blood cells; red cells of human, 18 h, 25
  Hemolysis percent, 25 μM: 1.12 ± 0.20%
Human red blood cells; red cells of human, 18 h, 50
  Hemolysis percent, 50 μM: 2.22 ± 0.67%
Human red blood cells; red cells of human, 18 h, 100
  Hemolysis percent, 100 μM: 5.02 ±0.63%
A. baumannii strains
  Number of A. baumannii strains at MIC (μM) 0.63: 15
  Number of A. baumannii strains at MIC (μM) 1.25: 14
  Number of A. baumannii strains at MIC (μM) 2.5: 0
  Number of A. baumannii strains at MIC (μM) 5: 0
  Number of A. baumannii strains at MIC (μM) 10: 0
  Number of A. baumannii strains at MIC (μM) ≤0.31: 1
  Number of A. baumannii strains at MIC (μM) ≥20: 0
A. baumannii strains; strains, 18 h
  MIC50: 0.63 µM (≈ 0.944 µg/mL)
  MIC, A. baumannii ATCC 17978: 1.25 µM (≈ 1.87 µg/mL)
  MIC, A. baumannii Isolated strain 1: 1.25 µM (≈ 1.87 µg/mL)
  MIC, A. baumannii Isolated strain 3: 1.25 µM (≈ 1.87 µg/mL)
  MIC, A. baumannii Isolated strain 6: 0.63 µM (≈ 0.944 µg/mL)
  MIC, A. baumannii Isolated strain 10: 0.63 µM (≈ 0.944 µg/mL)
  MIC, A. baumannii Isolated strain 14: 1.25 µM (≈ 1.87 µg/mL)
  MIC, A. baumannii Isolated strain 15: 0.63 µM (≈ 0.944 µg/mL)
  MIC, A. baumannii Isolated strain 16: 1.25 µM (≈ 1.87 µg/mL)
  MIC, A. baumannii Isolated strain 19: 0.63 µM (≈ 0.944 µg/mL)
  MIC, A. baumannii Isolated strain 22: 0.63 µM (≈ 0.944 µg/mL)
  MIC, A. baumannii Isolated strain 39: 0.63 µM (≈ 0.944 µg/mL)
  MIC, A. baumannii Isolated strain 44: 1.25 µM (≈ 1.87 µg/mL)
  MIC, A. baumannii Isolated strain 66: 1.25 µM (≈ 1.87 µg/mL)
  MIC, A. baumannii Isolated strain 68: 1.25 µM (≈ 1.87 µg/mL)
  MIC, A. baumannii Isolated strain 69: 0.63 µM (≈ 0.944 µg/mL)
  MIC, A. baumannii Isolated strain 71: 0.63 µM (≈ 0.944 µg/mL)
  MIC, A. baumannii Isolated strain 76: < 0.31 µM
  MIC, A. baumannii Isolated strain 80: 0.63 µM (≈ 0.944 µg/mL)
  MIC, A. baumannii Isolated strain 82: 0.63 µM (≈ 0.944 µg/mL)
  MIC, A. baumannii Isolated strain 86: 0.63 µM (≈ 0.944 µg/mL)
  MIC, A. baumannii Isolated strain 89: 1.25 µM (≈ 1.87 µg/mL)
  MIC, A. baumannii Isolated strain 102: 0.63 µM (≈ 0.944 µg/mL)
  MIC, A. baumannii Isolated strain 127: 1.25 µM (≈ 1.87 µg/mL)
  MIC, A. baumannii Isolated strain 141: 0.63 µM (≈ 0.944 µg/mL)
  MIC, A. baumannii Isolated strain 144: 1.25 µM (≈ 1.87 µg/mL)
  MIC, A. baumannii Isolated strain 147: 1.25 µM (≈ 1.87 µg/mL)
  MIC, A. baumannii Isolated strain 152: 0.63 µM (≈ 0.944 µg/mL)
  MIC, A. baumannii KCCM 40203: 0.63 µM (≈ 0.944 µg/mL)
  MIC, A. baumannii NCCP 14654: 1.25 µM (≈ 1.87 µg/mL)
MDR P. aeruginosa
  Minimum inhibitory concentrations, MDR P. aeruginosa: 1.25 µM (≈ 1.87 µg/mL)

## RLWWRWIVR-NH2 [HLWCopW29-4]
Human red blood cells; red cells of human, 18 h, 25
  Hemolysis percent, 25 μM: 1.02 ±0.01%
Human red blood cells; red cells of human, 18 h, 50
  Hemolysis percent, 50 μM: 1.08 ±0.04%
Human red blood cells; red cells of human, 18 h, 100
  Hemolysis percent, 100 μM: 2.47 ±0.03%
DMPC:DMPG liposomes; 2nd run
  ΔS: -23.6 cal/moldeg
MDR P. aeruginosa
  MIC in 0.2% albumin and 0.01% AcOH added CLSI standard condition, MDR P. aeruginosa: > 20 µM
  Minimum inhibitory concentrations, MDR P. aeruginosa: > 20 µM

## Colistin
Human red blood cells; peptide 25 μM, 8% human red blood cells in PBS (final 4%), 18 h 37 °C, absorbance 540 nm, 1% Triton X-100 = 100%, triplicate
  Hemolysis percent, 25 μM: 0.24 ±0.09%
Human red blood cells; peptide 50 μM, 8% human red blood cells in PBS (final 4%), 18 h 37 °C, absorbance 540 nm, 1% Triton X-100 = 100%, triplicate
  Hemolysis percent, 50 μM: 0.31%
Human red blood cells; peptide 100 μM, 8% human red blood cells in PBS (final 4%), 18 h 37 °C, absorbance 540 nm, 1% Triton X-100 = 100%, triplicate
  Hemolysis percent, 100 μM: 0.39 ±0.06%
A. baumannii strains; 30 A. baumannii strains, including 27 carbapenem-resistant, CLSI broth microdilution
  MIC50: 0.63 µM
A. baumannii strains; CLSI
  MIC, A. baumannii ATCC 17978: 0.63 µM
  MIC, A. baumannii ATCC BBA 1605: 0.63 µM
  MIC, A. baumannii Isolated strain 1: 0.63 µM
  MIC, A. baumannii Isolated strain 3: > 20 µM
  MIC, A. baumannii Isolated strain 6: 2.5 µM
  MIC, A. baumannii Isolated strain 10: 2.5 µM
  MIC, A. baumannii Isolated strain 14: 1.25 µM
  MIC, A. baumannii Isolated strain 15: 0.63 µM
  MIC, A. baumannii Isolated strain 16: < 0.31 µM
  MIC, A. baumannii Isolated strain 19: < 0.31 µM
  MIC, A. baumannii Isolated strain 22: 1.25 µM
  MIC, A. baumannii Isolated strain 39: < 0.31 µM
  MIC, A. baumannii Isolated strain 44: 1.25 µM
  MIC, A. baumannii Isolated strain 66: 1.25 µM
  MIC, A. baumannii Isolated strain 68: 0.63 µM
  MIC, A. baumannii Isolated strain 69: 1.25 µM
  MIC, A. baumannii Isolated strain 71: 1.25 µM
  MIC, A. baumannii Isolated strain 76: < 0.31 µM
  MIC, A. baumannii Isolated strain 80: 0.63 µM
  MIC, A. baumannii Isolated strain 82: 0.63 µM
  MIC, A. baumannii Isolated strain 86: 0.63 µM
  MIC, A. baumannii Isolated strain 89: 2.5 µM
  MIC, A. baumannii Isolated strain 102: 0.63 µM
  MIC, A. baumannii Isolated strain 127: 0.63 µM
  MIC, A. baumannii Isolated strain 141: < 0.31 µM
  MIC, A. baumannii Isolated strain 144: 0.63 µM
  MIC, A. baumannii Isolated strain 147: 5 µM
  MIC, A. baumannii Isolated strain 152: 1.25 µM
  MIC, A. baumannii KCCM 40203: 0.63 µM
  MIC, A. baumannii NCCP 14654: 1.25 µM
A. baumannii strains
  Number of A. baumannii strains at MIC (μM) 0.63: 12
  Number of A. baumannii strains at MIC (μM) 1.25: 8
  Number of A. baumannii strains at MIC (μM) 2.5: 3
  Number of A. baumannii strains at MIC (μM) 5: 1
  Number of A. baumannii strains at MIC (μM) 10: 0
  Number of A. baumannii strains at MIC (μM) ≤0.31: 5
  Number of A. baumannii strains at MIC (μM) ≥20: 1
MDR P. aeruginosa
  MIC in 0.2% albumin and 0.01% AcOH added CLSI standard condition, MDR P. aeruginosa: ≤ 0.15 µM
  Minimum inhibitory concentrations, MDR P. aeruginosa: 1.25 µM and 0.63 µM
